Source: patent US6503749B2 (Aventis Pharma S.A., priority 1998, dated 2003)

Molecular target: T1, APAT (acetyl-coenzyme A pregnenolone acetyltransferase) (Saccharomyces cerevisiae, UniProt P53296)
T1 construct: the semi-purified APAT transfers the acetate on 3β-ol, delta^4 or delta^5-steroids; endogenous in cells; host or cells: S. cerevisiae strain TGY73.4; endogenous enzyme purified in house from cell lysate (ZnCl2 precipitation, DEAE-Sephacel, Phenyl-Sepharose, Q-Sepharose, cholate-Sepharose)
T1 sequence (P53296 whole entry): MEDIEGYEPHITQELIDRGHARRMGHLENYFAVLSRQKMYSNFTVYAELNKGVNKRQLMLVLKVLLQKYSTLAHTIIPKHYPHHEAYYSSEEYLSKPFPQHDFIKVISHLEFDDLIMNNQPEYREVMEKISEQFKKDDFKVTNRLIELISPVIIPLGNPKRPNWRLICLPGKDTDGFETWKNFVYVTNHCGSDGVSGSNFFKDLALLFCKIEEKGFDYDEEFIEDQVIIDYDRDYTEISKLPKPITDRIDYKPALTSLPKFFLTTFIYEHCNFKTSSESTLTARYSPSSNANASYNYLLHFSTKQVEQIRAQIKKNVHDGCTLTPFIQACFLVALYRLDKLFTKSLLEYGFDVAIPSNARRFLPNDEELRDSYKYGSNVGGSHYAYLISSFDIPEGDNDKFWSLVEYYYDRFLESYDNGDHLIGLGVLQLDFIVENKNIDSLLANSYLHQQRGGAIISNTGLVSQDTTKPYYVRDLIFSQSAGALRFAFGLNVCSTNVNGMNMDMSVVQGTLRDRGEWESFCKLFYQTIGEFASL
Test: Test of APAT enzyme activity (semi-purified APAT; substrate specificity and inhibition)
Type: biochemical, S. cerevisiae
Settings: for Relative activity (%), Substrate a): 30 μM of each steroid tested and 100 μM of [3H]acetyl-CoA; for Relative activity (%), Substrate a) / Relative activity (%), Substrate b): semi-purified APAT; for Relative activity (%), Substrate b): 100 μM of each acyl donor and 30 μM of [3H]pregnenolone
Method: The pregnenolone is added in solution in 2 μl of tyloxapol (Sigma)/ethanol mixture (1:1) in a potassium phosphate buffer (20 mM) at pH 7.0. After incubation for 15 minutes at 30° C., the reaction is stopped by adding 2 ml of dichloromethane.
The steroids are extracted with dichloromethane, then separated by reversed-phase high-performance liquid chromatography (hereinafter: RP-HPLC) in isocratic elution conditions with acetonitrile in an Ultrasphere ODS column (Beckman) at 45° C. on an HP 1090 chromatograph (Hewlett-Packard) connected to a FLO-One 500 radiodetector (Packard) which permits measurement of the amount of pregnenolone [^3H]acetate formed.
One APAT unit is defined as the quantity of enzyme that produces 1 nmol of pregnenolone acetate per minute at 30° C., in the conditions described above.

| SMILES | Relative activity (%), Substrate a) | further results |
| --- | --- | --- |
| CC(=O)[C@H]1CC[C@H]2[C@@H]3CCC4=C[C@@H](O)CC[C@]4(C)[C@H]3CC[C@]12C [4-pregnen-3βol-20-one] | 70% |  |
| CC(=O)[C@H]1CC[C@H]2[C@@H]3CC[C@@H]4C[C@@H](O)CC[C@]4(C)[C@H]3CC[C@]12C [5β-pregnan-3βol-20-one] | 1.8% |  |
| CC(=O)[C@@]1(O)CC[C@H]2[C@@H]3CC=C4C[C@@H](O)CC[C@]4(C)[C@H]3CC[C@@]21C [17α-OH pregnenolone, 17α-hydroxypregnenolone] | 89% |  |
| C[C@]12CC[C@@H]3c4ccc(O)cc4CC[C@H]3[C@@H]1CC[C@@H]2O [17β-oestradiol] | 5% |  |
| C[C@]12CC[C@H](O)CC1=CC[C@@H]1[C@@H]2CC[C@]2(C)C(=O)CC[C@@H]12 [DHEA, dehydroepiandrosterone] | 104% |  |
| O=C(O)c1cc(SSc2ccc([N+](=O)[O-])c(C(=O)O)c2)ccc1[N+](=O)[O-] [DTNB] |  | Inhibition of APAT activity (reagents of sulfhydryl groups): strongly inhibited |
| CCN1C(=O)C=CC1=O [NEM] |  | Inhibition of APAT activity (reagents of sulfhydryl groups): strongly inhibited |
| CC(=O)[C@H]1CC[C@H]2[C@@H]3CC=C4C[C@@H](O)CC[C@]4(C)[C@H]3CC[C@]12C [Pregnenolone] | 100% |  |
| CCCC(=O)SCCNC(=O)CCNC(=O)[C@H](O)C(C)(C)COP(=O)(O)OP(=O)(O)OC[C@H]1O[C@@H](n2cnc3c(N)ncnc32)[C@H](O)[C@@H]1OP(=O)(O)O [butyryl-CoA] |  | Relative activity (%), Substrate b): 16% |
| CC(C)CCC[C@@H](C)[C@H]1CC[C@H]2[C@@H]3CC=C4C[C@@H](O)CC[C@]4(C)[C@H]3CC[C@]12C [cholesterol] | 0.6% |  |
| CC(C)[C@@H](C)/C=C/[C@@H](C)[C@H]1CC[C@H]2C3=CC=C4C[C@@H](O)CC[C@]4(C)[C@H]3CC[C@]12C [ergosterol] | 0.4% |  |
| CCCCCC(=O)SCCNC(=O)CCNC(=O)[C@H](O)C(C)(C)COP(=O)(O)OP(=O)(O)OC[C@H]1O[C@@H](n2cnc3c(N)ncnc32)[C@H](O)[C@@H]1OP(=O)(O)O [hexanoyl-CoA] |  | Relative activity (%), Substrate b): 18% |
| C[C@]12CC[C@@H]3c4ccc(O)cc4CC[C@H]3[C@@H]1CCC2=O [oestrone] | 2.5% |  |
| CCCCCCCC/C=C\CCCCCCCC(=O)SCCNC(=O)CCNC(=O)[C@H](O)C(C)(C)COP(=O)(O)OP(=O)(O)OC[C@H]1O[C@@H](n2cnc3c(N)ncnc32)[C@H](O)[C@@H]1OP(=O)(O)O [oleoyl-CoA] |  | Relative activity (%), Substrate b): not detected |
| CCC(=O)SCCNC(=O)CCNC(=O)[C@H](O)C(C)(C)COP(=O)(O)OP(=O)(O)OC[C@H]1O[C@@H](n2cnc3c(N)ncnc32)[C@H](O)[C@@H]1OP(=O)(O)O [propionyl-CoA] |  | Relative activity (%), Substrate b): 33% |
| [Cl-].[Cl-].[Zn+2] [zinc chloride] |  | Inhibition of APAT activity (zinc chloride 1 mM): complete |
